Square brackets hold non-standard residues; d marks the D form. Peptide text beside a SMILES is read from it. ξ: configuration not given here. Ile(3ξ) = CCC(C)[C@H](N)C(=O)O; Thr(3ξ) = CC(O)[C@H](N)C(=O)O; Nle = CCCC[C@H](N)C(=O)O
Tests used:
[1] = test system: patients with SBS-IF or SBS-II; experiment: Phase 2 open-label metabolic balance trial in SBS-IF and SBS-II patients (Example 6): 72-hour metabolic balance, body composition, plasma L-citrulline; assay type: in vivo, human; settings: 5 mg once weekly
Description: Treatment with glucagon-like peptide-2 (GLP-2) analogs promotes intestinal adaptation in patients with short bowel syndrome (SBS). Apraglutide is a novel long-acting GLP-2 analog designed to enable once weekly dosing. This Phase 2 trial investigated the safety and efficacy of once weekly 5 mg apraglutide in patients with SBS intestinal failure (SBS-IF) and SBS intestinal insufficiency (SBS-II). In this open-label trial, 8 adult patients with SBS-IF (n=4) or SBS-II (n=4) and a fecal wet weight of >1500 g/day were treated with once weekly subcutaneous 5 mg apraglutide for 4 weeks. Safety was the primary endpoint. As secondary endpoints changes were examined from baseline in intestinal absorption of wet weight, energy (measured by bomb calorimetry) and electrolytes as well as fecal wet weight and urine production using 72-hour metabolic balance studies. Common treatment-related adverse events were consistent with the physiological effect of GLP-2 and included reduced stoma output (n=6), stoma complication (n=6), nausea (n=5), flatulence (n=4), polyuria (n=3) and abdominal pain (n=3).
A total of nine adult patients (aged ≥18 to ≤80 years) with SBS were screened, eight of whom enrolled in the trial: four patients had SBS-II and four patients had SBS-IF. Both subgroups of patients were included to investigate the safety and efficacy of apraglutide across the disease spectrum. Patient eligibility was assessed during a screening visit. Main inclusion criteria were SBS secondary to surgical resection of the small intestine with or without colon; at least six months since last surgical bowel resection; and a severe degree of malabsorption, defined as a fecal wet weight output≥1,500 g/day and a urine volume production<2000 mL/day.
Fecal output and urine volume production were confirmed during baseline examinations. Patients were excluded if they had clinical signs of active inflammatory bowel disease, a history of cancer within five years or an inadequate hepatic-, kidney- or heart function.
The contents of the buckets were weighed, processed intro dry matter, and analyzed as previously described: energy by bomb calorimetry, nitrogen by Kjeldahl's method, lipid by a modified Van de Kamer titration technique, carbohydrate by Englyst's method, sodium and potassium by flame photometry and calcium and magnesium by atomic absorption spectrometry. A 24-hour average was calculated based on the three 24-hour periods. Absolute changes were calculated as the difference between the baseline and the post-treatment value. Relative changes were calculated as absolute changes divided by baseline values multiplied by 100.
Body weight was measured using a levelled platform scale. Body composition was measured by dual-energy x-ray absorptiometry (Norland XR-36 DXA densitometer, Norland, Ford Atkinson, WI, USA) at baseline and post-treatment.
Blood samples for analysis of the plasma concentration of apraglutide and plasma concentration of fasting L-citrulline, a marker of enterocyte mass, were collected at baseline, during first and second injection (pre-dose and at sequential timepoints), four days after first injection and at the end of treatment. Blood sampling for apraglutide pharmacokinetics was also performed after the fourth and last injection covering 96 hours. […] Blood samples for anti-apraglutide antibodies were collected at baseline, at the end of treatment and at the 4-6 weeks follow-up visit. All eight patients tested negative for anti-apraglutide antibodies at baseline.
The primary endpoint of this trial was safety. Secondary endpoints were absolute and relative changes from baseline in dietary intake, fecal excretion and absorption of wet weight, energy, macronutrients and electrolytes, urine production, urine electrolyte excretion, body weight, body composition, bone mineral content, plasma L-citrulline as well as pharmacokinetic profiles. […]

[2] = test system: patients with SBS-IF; experiment: Safety assessments (adverse events) in Phase 2 SBS-IF trial (Example 5)
Description: In Part A, patients were treated with 5 mg apraglutide or placebo once weekly for 4 weeks. After a washout period of 6-10 weeks, the alternate treatment was given. Part A was followed by a second washout period of 6-10 weeks before patients entered Part B. Part B was an open-label dosing regimen with 10 mg apraglutide given once weekly for 4 weeks. The additional open-label treatment period (Part B) was included to investigate the safety and tolerability of 10 mg dosing. The procedures during each treatment period were consistent. The trial drug was provided as a freeze-dried powder for reconstitution and was administered as subcutaneous injections in the abdominal area.
Safety assessments were performed for each treatment period and included observation for injection site reactions, vital signs, blood samples, electrocardiogram (ECG), dipstick urinalysis, body weight and liver enzymes. […] Additionally, liver enzymes were measured prior to each drug administration.

[3] = test system: patients with SBS-IF or SBS-II; settings: in vivo
Description: Patients were treated with once weekly 5 mg apraglutide for four weeks. Apraglutide was provided as a freeze-dried powder for reconstitution in sterile water prior to injection, and treatments were administered as subcutaneous injections in the abdominal area. A 72-hour metabolic balance study was performed at baseline and at the end of the treatment period (starting one day after the fourth and last apraglutide injection). Each 72-hour metabolic balance study was performed during a five-day hospital admission. On the day of admission, patients were instructed to create a 24-hour drinking menu based on their habitual oral fluid intake. The drinking menu was to be followed during each balance study. On the second day of admission, just after the patients had urinated and emptied their stoma bags or defecated, the balance study was initiated. […] Daily PS and compliance to the predefined drinking menu was documented during admissions.
First, second and fourth apraglutide injections were performed at the hospital. Safety assessments included observation for injection site reactions, vital signs, blood samples, electrocardiogram (ECG), urinalysis and body weight. They were performed at baseline, during each injection of the trial drug, four days after first injection, at the end of treatment and 4-6 weeks after last dosing at the end of the trial, as shown in Table 20. Liver enzymes were measured prior to each drug administration.

[4] = comparison with other GLP-2 analogs
[5] = whole trial, incl. placebo periods

CCCC[C@H](NC(=O)[C@H](CCC(=O)O)NC(=O)[C@H](CC(=O)O)NC(=O)[C@H](CO)NC(=O)[C@H](Cc1ccccc1)NC(=O)[C@H](CO)NC(=O)CNC(=O)[C@H](CC(=O)O)NC(=O)CNC(=O)[C@@H](N)Cc1c[nH]cn1)C(=O)N[C@H](Cc1ccccc1)C(=O)N[C@H](C(=O)N[C@H](C(=O)N[C@@H](CC(C)C)C(=O)N[C@@H](CC(=O)O)C(=O)N[C@@H](CC(C)C)C(=O)N[C@@H](CC(C)C)C(=O)N[C@@H](C)C(=O)N[C@@H](C)C(=O)N[C@@H](CCCNC(=N)N)C(=O)N[C@@H](CC(=O)O)C(=O)N[C@@H](Cc1ccccc1)C(=O)N[C@H](C(=O)N[C@@H](CC(N)=O)C(=O)N[C@@H](Cc1c[nH]c2ccccc12)C(=O)N[C@@H](CC(C)C)C(=O)N[C@H](C(=O)N[C@@H](CCC(N)=O)C(=O)N[C@H](C(=O)N[C@@H](CCCCN)C(=O)N[C@H](C(=O)N[C@H](C(=O)N[C@@H](CC(=O)O)C(N)=O)C(C)O)C(C)CC)C(C)O)C(C)CC)C(C)CC)C(C)CC)C(C)O (stereo partly drawn) [apraglutide, L-histidyl-glycyl-L-aspartyl-glycyl-L-seryl-L-phenylalanyl-L-seryl-L-aspartyl-L-glutamyl-L-norleucyl-D-phenylalanyl-L-threonyl-Lisoleucyl-L-leucyl-L-aspartyl-L-leucyl-L-leucyl-L-alanyl-L-alanyl-L-arginyl-L-aspartyl-L-phenylalanyl-L-isoleucyl-L-asparaginyl-Ltryptophanyl-L-leucyl-L-isoleucyl-L-glutaminyl-L-threonyl-L-lysyl-L-isoleucyl-L-threonyl-Laspartic acid amide] (H-HGDGSFSDE[Nle][dF][Thr(3ξ)][Ile(3ξ)]LDLLAARDF[Ile(3ξ)]NWL[Ile(3ξ)]Q[Thr(3ξ)]K[Ile(3ξ)][Thr(3ξ)]D-NH2)
Wet weight, urine (urine production), change from baseline ([1]; 4 weeks, listed as Apraglutide): 560 g/day | Change from baseline increase in urinary input [1, 4]: 140.1% | Change in baseline in energy absorption [1, 4]: 1,074 kj/day | Change in baseline in wet weight absorption [1, 4]: 760.4 g/day | Any related adverse events, number of patients ([2]; 5 mg (N = 8)): 8 | Decreased appetite, number of patients ([2]; 5 mg (N = 8)): 1 | Edema, number of patients ([2]; 5 mg (N = 8)): 2 | Gastrointestinal stoma complication, number of patients ([2]; 5 mg (N = 8)): 5 | Gastrointestinal stoma output abnormal, number of patients ([2]; 5 mg (N = 8)): 4 | Gastrointestinal stoma output decreased, number of patients ([2]; 5 mg (N = 8)): 3 | Increased weight, number of patients ([2]; 5 mg (N = 8)): 1 | Polyuria, number of patients ([2]; 5 mg (N = 8)): 4 | Stoma complication, number of patients ([2]; 5 mg (N = 8)): 6 | Thirst decreased, number of patients ([2]; 5 mg (N = 8)): 3 | Injection site reactions, number of patients ([2]; 5 mg dose group): one | Any related adverse events, number of patients ([2]; 10 mg (N = 8)): 8 | Decreased appetite, number of patients ([2]; 10 mg (N = 8)): 2 | Edema, number of patients ([2]; 10 mg (N = 8)): 2 | Gastrointestinal stoma complication, number of patients ([2]; 10 mg (N = 8)): 5 | Gastrointestinal stoma output abnormal, number of patients ([2]; 10 mg (N = 8)): 4 | Gastrointestinal stoma output decreased, number of patients ([2]; 10 mg (N = 8)): 6 | Increased weight, number of patients ([2]; 10 mg (N = 8)): 2 | Polyuria, number of patients ([2]; 10 mg (N = 8)): 6 | Stoma complication, number of patients ([2]; 10 mg (N = 8)): 6 | Thirst decreased, number of patients ([2]; 10 mg (N = 8)): 4 | Injection site reactions, number of patients ([2]; 10 mg dose group): three | Safety and tolerability in words ([2]; 5 and 10 mg once weekly for four weeks): well tolerated and safe | Any related adverse events, number of patients ([2]; Total, all periods (N = 8)): 8 | Decreased appetite, number of patients ([2]; Total, all periods (N = 8)): 3 | Edema, number of patients ([2]; Total, all periods (N = 8)): 4 | Gastrointestinal stoma complication, number of patients ([2]; Total, all periods (N = 8)): 5 | Gastrointestinal stoma output abnormal, number of patients ([2]; Total, all periods (N = 8)): 5 | Gastrointestinal stoma output decreased, number of patients ([2]; Total, all periods (N = 8)): 6 | Increased weight, number of patients ([2]; Total, all periods (N = 8)): 3 | Polyuria, number of patients ([2]; Total, all periods (N = 8)): 7 | Stoma complication, number of patients ([2]; Total, all periods (N = 8)): 6 | Thirst decreased, number of patients ([2]; Total, all periods (N = 8)): 5 | Deaths ([2]; whole trial): no deaths | Injection site reactions, number of patients ([2]; whole trial): Three | Serious adverse events related to the trial drug ([2]; whole trial): None of these were considered related to the trial drug | Patients reporting serious adverse events [2, 5]: 5 patients | Serious adverse events, number of cases [2, 5]: 8 cases | Deaths [3]: no deaths occurred

Source: US11766470B2, “Manufacture, formulation and dosing of apraglutide” (VectivBio AG, priority 2020, dated 2023)
